Counter-ions that a name gives are not always drawn.
target: T1, human somatostatin receptor subtype sst1 (Homo sapiens, UniProt P30872); test: Competition binding with 125I-LTT-SRIF-28, CHO cell membranes, sst1; conditions: bound only; read-out: Ki values for the sst1
T1 construct: expressed in transfected cells; host or cells: CHO cells (membranes)
Description: (§1) The affinity of the compounds of the invention for the five human somatostatin receptor subtypes (sst1, sst2, sst3, sst4, and sst5) was determined in competition binding assays with (^125I-Tyr)-[Leu^8, DTrp^22]-Somatostatin-28 (^125I-LTT-SRIF-28). The biological material for these experiments consisted of membranes from Chinese hamster ovary (CHO) cells stably transfected with one of the five human somatostatin receptor subtypes. Membranes (3-20 μg of total protein per sample) and trace amount of ^125I-LTT-SRIF-28 were incubated in 10 mM Hepes, 1 mM EDTA, 5 mM MgCl2, 5 mg/ml of BSA and 30 μg/ml bacitracin, pH 7.6, with six concentrations of the compounds. Each concentration was run in duplicate. Nonspecific binding was defined by 1 μM somatostatin-14 (SRIF-14) and corresponded to 5-25% of total binding. After 60 min at room temperature, incubations were terminated by rapid vacuum filtration through GF/B glass fiber filter mats (presoaked at 4° C. in 200 ml of 10 mM Hepes, 1 mM EDTA, 5 mM MgCl2, pH 7.6) and three 5 ml washes with ice-cold wash buffer (20 mM TRIS, 1 mM EDTA, 5 mM MgCl2, pH 7.4). The filters were then dried, impregnated with scintillate and their radioactivity was measured by scintillation counting. The analysis of the experiments was carried out by nonlinear least square curve fitting. Affinity constants (Ki) were calculated from the IC50 values according to the Cheng-Prusoff's equation (Cheng and Prusoff, 1973). Experiments were repeated a minimum of three times.

T1 sequence (P30872 whole entry): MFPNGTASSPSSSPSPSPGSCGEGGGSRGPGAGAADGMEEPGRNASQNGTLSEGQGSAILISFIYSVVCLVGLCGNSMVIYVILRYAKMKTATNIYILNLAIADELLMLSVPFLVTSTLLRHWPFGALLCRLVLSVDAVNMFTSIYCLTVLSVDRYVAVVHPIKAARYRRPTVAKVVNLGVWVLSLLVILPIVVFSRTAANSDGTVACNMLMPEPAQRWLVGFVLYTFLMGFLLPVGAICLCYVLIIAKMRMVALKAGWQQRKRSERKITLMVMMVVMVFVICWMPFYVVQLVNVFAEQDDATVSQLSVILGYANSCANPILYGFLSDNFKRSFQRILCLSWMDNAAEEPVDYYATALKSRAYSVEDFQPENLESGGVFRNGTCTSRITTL

| Ki | Compound |
| --- | --- |
| < 300 nM | Cc1ccc(S(=O)(=O)N[C@@H](CCNC(=N)N)COCc2ccccc2)c2ccccc12 [compound 4, (S)-4-methylnaphthalene-1-sulfonic acid (1-benzyloxymethyl-3-guanidinylpropyl)amide] |
| < 300 nM | Cc1ccc(S(=O)(=O)N[C@@H](CCCN)COCc2ccccc2)c2ccccc12 [compound 15, (S)-4-methyl-naphthalene-1-sulfonic acid (4-amino-1-benzyloxymethylbutyl)amide] |
| < 300 nM | Cc1ccc(S(=O)(=O)N[C@@H](CCCNC(C)C)CSCc2ccccc2)c2ccccc12 [compound 61, (S)-4-methylnaphthalene-1-sulfonic acid (1-benzylsulfanylmethyl-4-isopropylaminobutyl)amide] |
| < 300 nM | Cc1ccc(S(=O)(=O)N[C@@H](CCCNC(C)C)COc2ccc3cnccc3c2)c2ccccc12 [compound 105, (S)-4-methylnaphthalene-1-sulfonic acid [4-isopropylamino-1-(isoquinolin-6-yloxymethyl)butyl]amide] |
| < 300 nM | Cc1ccc(S(=O)(=O)N[C@@H](CNCCN(C)C)COCc2ccccc2)c2ccccc12 [compound 27, (S)-4-methylnaphthalene-1-sulfonic acid {2-benzyloxy-1-[(2-dimethylaminoethylamino)methyl]ethyl}amide] |
| < 300 nM | Cc1ccc(S(=O)(=O)N[C@@H](CCCNC(C)C)COCc2ccccc2)c2ccccc12 [compound 62, (S)-4-methylnaphthalene-1-sulfonic acid (1-benzyloxymethyl-4-isopropylaminobutyl)amide] |
| < 300 nM | Cc1ccc(S(=O)(=O)N[C@@H](CCNC2=NCCN2)COCc2ccccc2)c2ccccc12 [compound 79, (S)-4-methylnaphthalene-1-sulfonic acid [1-benzyloxymethyl-3-(4,5-dihydro-1H-imidazol-2-ylamino)propyl]amide formic acid salt] |
| < 300 nM | Cc1ccc(S(=O)(=O)N[C@@H](CCCN)COc2ccccc2)c2ccccc12 [compound 13, (S)-4-methylnaphthalene-1-sulfonic acid (4-amino-1-phenoxymethylbutyl)amide] |
| < 300 nM | Cc1ccc(S(=O)(=O)N[C@@H](CCCNC(C)C)CNC2CCCc3ccccc32)c2ccccc12 (stereo partly drawn) [compound 17, (S)-4-methylnaphthalene-1-sulfonic acid {4-isopropylamino-1-[(1,2,3,4-tetrahydronaphthalen-1-ylamino)methyl]butyl}amide] |
| < 300 nM | CCC(CC)NCCC[C@@H](COc1ccccc1)NS(=O)(=O)c1ccc(C)c2ccccc12 [compound 14, (S)-4-methylnaphthalene-1-sulfonic acid [4-(1-ethylpropylamino)-1-phenoxymethylbutyl]amide] |
| < 300 nM | Cc1ccc(S(=O)(=O)N[C@@H](C(=O)NCCNC(C)C)[C@H](C)OCc2ccccc2)c2ccccc12 [compound 71, (R)-4-methylnaphthalene-1-sulfonic acid [2-benzyloxy-2-(S)methyl-1-(2-isopropylaminoethylcarbamoyl)-ethyl]amide] |

target: T2, human somatostatin receptor subtype sst4 (Homo sapiens, UniProt P31391); test: Competition binding with 125I-LTT-SRIF-28, CHO cell membranes, sst4; conditions: bound only; read-out: Ki values for the sst4
T2 construct: expressed in transfected cells; host or cells: CHO cells (membranes)
Description: as §1

T2 sequence (P31391 whole entry): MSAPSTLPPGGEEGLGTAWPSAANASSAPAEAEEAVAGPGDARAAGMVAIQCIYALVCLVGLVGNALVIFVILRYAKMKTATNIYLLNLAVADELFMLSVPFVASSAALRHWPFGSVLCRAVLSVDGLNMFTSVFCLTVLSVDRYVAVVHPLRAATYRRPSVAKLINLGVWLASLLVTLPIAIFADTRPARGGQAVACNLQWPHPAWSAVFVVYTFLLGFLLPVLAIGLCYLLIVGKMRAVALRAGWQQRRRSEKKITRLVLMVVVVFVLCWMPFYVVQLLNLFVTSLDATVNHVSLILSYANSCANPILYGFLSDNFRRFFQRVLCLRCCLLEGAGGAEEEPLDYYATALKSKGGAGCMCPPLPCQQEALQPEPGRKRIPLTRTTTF

| Ki | Compound |
| --- | --- |
| < 300 nM | Cc1ccc(S(=O)(=O)N[C@H](COc2ccccc2)Cc2c[nH]cn2)c2ccccc12 [compound 84, (S)-4-methylnaphthalene-1-sulfonic acid [2-(1H-imidazol-4-yl)-1-phenoxymethylethyl]amide] |
| < 300 nM | Cc1ccc(S(=O)(=O)N[C@@H](CCNC(=N)N)COCc2ccccc2)c2ccccc12 [compound 4, (S)-4-methylnaphthalene-1-sulfonic acid (1-benzyloxymethyl-3-guanidinylpropyl)amide] |
| < 300 nM | Cc1ccc(S(=O)(=O)N[C@@H](CCCN)COC(C)c2ccccc2)c2ccccc12 (stereo partly drawn) [compound 88, (S)-4-methyl-naphthalene-1-sulfonic acid [4-amino-1-(1-phenyl-ethoxy methyl)-butyl]-amide formic acid salt] |
| < 300 nM | Cc1ccc(S(=O)(=O)N[C@@H](CCCN)COCc2ccccc2)c2ccccc12 [compound 15, (S)-4-methyl-naphthalene-1-sulfonic acid (4-amino-1-benzyloxymethylbutyl)amide] |
| < 300 nM | Cc1ccc(S(=O)(=O)N[C@H](COCc2ccccc2)C(=O)NCCN)c2ccccc12 [compound 24, (R)-4-methylnaphthalene-1-sulfonic acid [1-(2-aminoethylcarbamoyl)-2-benzyloxyethyl]amide] |
| < 300 nM | Cc1ccc(S(=O)(=O)N[C@H](CSCc2ccccc2)C(=O)NCCN)c2ccccc12 [compound 31, (S)-4-methylnaphthalene-1-sulfonic acid [1-(2-aminoethylcarbamoyl)-2-benzylsulfanylethyl]amide] |
| < 300 nM | Cc1ccc(S(=O)(=O)NC(CCCN)CNC2CCCCC2)c2ccccc12 (stereo not shown) [compound 77, 4-methylnaphthalene-1-sulfonic acid (4-amino-1-cyclohexylaminomethyl-butyl)-amide formic acid salt] |
| < 300 nM | Cc1ccc(S(=O)(=O)N[C@@H](C(=O)NCCN)[C@H](C)OCc2ccccc2)c2ccccc12 [compound 70, (R)-4-methylnaphthalene-1-sulfonic acid [2-benzyloxy-2-(S)methyl-1-(aminoethylcarbamoyl)-ethyl]amide] |
| < 300 nM | Cc1ccc(S(=O)(=O)N[C@H](CNc2ccccc2)Cc2c[nH]cn2)c2ccccc12 [compound 94, (S)-4-methylnaphthalene-1-sulfonic acid [2-(1H-imidazol-4-yl)-1-phenylaminomethylethyl]amide] |
| < 300 nM | NCCC[C@@H](COCc1ccccc1)NS(=O)(=O)c1cccc2ccccc12 [compound 83, (S)-naphthalene-1-sulfonic acid (4-amino-1-benzyloxymethylbutyl)amide] |
| < 300 nM | Cc1ccc(S(=O)(=O)N[C@@H](CCCN)COc2ccsc2)c2ccccc12 [compound 87, (S)-4-methylnaphthalene-1-sulfonic acid [4-amino-1-(thiophen-3-yloxymethyl)-butyl]-amide] |
| < 300 nM | Cc1ccc(S(=O)(=O)N[C@@H](CCCN)CSc2ccccc2)c2ccccc12 [compound 67, (S)-4-methylnaphthalene-1-sulfonic acid (4-amino-1-phenylsulfanylmethylbutyl)amide] |
| < 300 nM | Cc1ccc(S(=O)(=O)N[C@@H](CCN)COCc2ccccc2)c2ccccc12 [compound 3, (S)-4-methylnaphthalene-1-sulfonic acid (3-amino-1-benzyl-oxymethylpropyl)amide] |
| < 300 nM | Cc1ccc(S(=O)(=O)N[C@@H](CCCN)CNCc2ccccc2)c2ccccc12 [compound 35, (S)-4-methylnaphthalene-1-sulfonic acid [4-amino-1-(benzylaminomethyl)butyl]amide] |
| < 300 nM | Cc1ccc(S(=O)(=O)N[C@@H](CNCCN(C)C)COCc2ccccc2)c2ccccc12 [compound 27, (S)-4-methylnaphthalene-1-sulfonic acid {2-benzyloxy-1-[(2-dimethylaminoethylamino)methyl]ethyl}amide] |
| < 300 nM | Cc1ccc(S(=O)(=O)N[C@@H](CCCNC(C)C)COCc2ccccc2)c2ccccc12 [compound 62, (S)-4-methylnaphthalene-1-sulfonic acid (1-benzyloxymethyl-4-isopropylaminobutyl)amide] |
| < 300 nM | CCOC[C@H](CCCN)NS(=O)(=O)c1ccc(C)c2ccccc12 [compound 76, (S)-4-methylnaphthalene-1-sulfonic acid (4-amino-1-ethoxymethylbutyl)amide] |
| < 300 nM | NCCC[C@@H](COCc1ccccc1)NS(=O)(=O)c1ccc(F)c2ccccc12 [compound 78, (S)-4-fluoronaphthalene-1-sulfonic acid (4-amino-1-benzyloxymethylbutyl)amide] |
| < 300 nM | Cc1ccc(S(=O)(=O)N[C@@H](CCNC2=NCCN2)COCc2ccccc2)c2ccccc12 [compound 79, (S)-4-methylnaphthalene-1-sulfonic acid [1-benzyloxymethyl-3-(4,5-dihydro-1H-imidazol-2-ylamino)propyl]amide formic acid salt] |
| < 300 nM | Cc1ccc(S(=O)(=O)N[C@H](CNCc2ccccc2)Cc2c[nH]cn2)c2ccccc12 [compound 93, (S)-4-methylnaphthalene-1-sulfonic acid [1-(benzylaminomethyl)-2-(1H-imidazol-4-yl)ethyl]amide] |
| < 300 nM | Cc1ccc(S(=O)(=O)N[C@@H](CCN)COc2ccccc2)c2ccccc12 [compound 100, (S)-4-Methylnaphthalene-1-sulfonic acid (3-amino-1-phenoxymethylpropyl)amide] |
| < 300 nM | Cc1ccc(S(=O)(=O)N[C@@H](CCCN)COc2ccccc2)c2ccccc12 [compound 13, (S)-4-methylnaphthalene-1-sulfonic acid (4-amino-1-phenoxymethylbutyl)amide] |
| < 300 nM | Cc1ccc(S(=O)(=O)N[C@@H](CCCN)CN(C)Cc2ccccc2)c2ccccc12 [compound 85, (S)-4-methylnaphthalene-1-sulfonic acid {4-amino-1-[(benzylmethylamino)methyl]butyl}amide] |
| < 300 nM | Cc1ccc(S(=O)(=O)NC(CNCc2ccccc2)C2CCNCC2)c2ccccc12 (stereo not shown) [compound 34, 4-methylnaphthalene-1-sulfonic acid (2-benzylamino-1-piperidin-4-ylethyl)amide] |
| < 300 nM | Cc1ccc(S(=O)(=O)N[C@@H](CCCN)COCc2c(F)c(F)c(F)c(F)c2F)c2ccccc12 [compound 102, (S)-4-methylnaphthalene-1-sulfonic acid (4-amino-1-pentafluorophenylmethoxymethylbutyl)amide] |
| < 300 nM | Cc1ccc(S(=O)(=O)N[C@@H](CCCN)COCc2ccc(F)cc2)c2ccccc12 [compound 101, (S)-4-methylnaphthalene-1-sulfonic acid [4-amino-1-(4-fluorobenzyloxymethyl)butyl]amide] |
| < 300 nM | Cc1ccc(S(=O)(=O)N[C@@H](CCCN)CSCc2ccccc2)c2ccccc12 [compound 1, (S)-4-methylnaphthalene-1-sulfonic acid (4-amino-1-benzylsulfanylmethylbutyl)amide] |
| < 300 nM | Cc1ccc(COC[C@H](CCCN)NS(=O)(=O)c2ccc(C)c3ccccc23)cc1 [compound 12, (S)-4-methylnaphthalene-1-sulfonic acid [4-amino-1-(4-methylbenzyloxymethyl)butyl]amide] |

| Compound | Ki |
| --- | --- |
| Cc1ccc(S(=O)(=O)N[C@@H](CCCN)COCC(C)C)c2ccccc12 [compound 80, (S)-4-methylnaphthalene-1-sulfonic acid (4-amino-1-isobutoxymethylbutyl)amide] | < 300 nM |

Reference: US20100048549A1, “Peptidomimetics selective for the somatostatin receptor subtypes 1 and/or 4” (priority 2005, published 2010)
